Drawing on the NIST ThermoML archive (doi:10.1021/je600552b), this text covers viscosity and kinematic viscosity for eight compounds.

Each structure is given as a SMILES string. Numbers after ± are expanded uncertainties.

For this data set the following is noted: 101.33 kPa, Liquid, Falling or rolling sphere viscometry.

Regarding `CCCCCCCCCCCCCCCC(=O)OC` [methyl hexadecanoate], the viscosity by setting is: (313.15 K) 3.764 ± 0.13 mPa·s; (323.15 K) 2.931 ± 0.1 mPa·s; (333.15 K) 2.336 ± 0.08 mPa·s; (343.15 K) 1.946 ± 0.067 mPa·s.

Turning to `CCCCCCCCCCCC(=O)OC` [methyl dodecanoate], the viscosity came out at 3.096 ± 0.11 mPa·s (293.15 K); 2.475 ± 0.085 mPa·s (303.15 K); 2.044 ± 0.07 mPa·s (313.15 K); 1.643 ± 0.056 mPa·s (323.15 K); 1.383 ± 0.047 mPa·s (333.15 K); 1.173 ± 0.04 mPa·s (343.15 K).

On to `CCCCCCCCCCCCCC(=O)OC` [methyl tetradecanoate], for which the viscosity is on record as 4.442 ± 0.15 mPa·s (293.15 K); 3.496 ± 0.12 mPa·s (303.15 K); 2.841 ± 0.098 mPa·s (313.15 K); 2.252 ± 0.078 mPa·s (323.15 K); 1.819 ± 0.063 mPa·s (333.15 K); 1.521 ± 0.052 mPa·s (343.15 K).

As to `CC/C=C\C/C=C\C/C=C\CCCCCCCC(=O)O` [all-cis-9,12,15-octadecatrienoic acid], the kinematic viscosity worked out at 1.55e-05 ± 7.9e-07 m2/s (293.15 K); 1.24e-05 ± 6.3e-07 m2/s (303.15 K); 8.91e-06 ± 4.5e-07 m2/s (313.15 K); 7.26e-06 ± 3.7e-07 m2/s (323.15 K); 5.96e-06 ± 3e-07 m2/s (333.15 K); 5.13e-06 ± 2.6e-07 m2/s (343.15 K).

For `CCCCCCCC/C=C\CCCCCCCC(=O)OC` [methyl cis-9-octadecenoate], the viscosity is, setting by setting: (293.15 K) 6.37 ± 0.22 mPa·s; (303.15 K) 4.922 ± 0.17 mPa·s; (313.15 K) 3.939 ± 0.14 mPa·s; (323.15 K) 3.097 ± 0.11 mPa·s; (333.15 K) 2.472 ± 0.085 mPa·s; (343.15 K) 2.054 ± 0.071 mPa·s.

In the case of `CC/C=C\C/C=C\C/C=C\CCCCCCCC(=O)OCC(COC(=O)CCCCCCC/C=C\C/C=C\C/C=C\CC)OC(=O)CCCCCCC/C=C\C/C=C\C/C=C\CC` [trilinolenin], the kinematic viscosity by setting is: (293.15 K) 2.37e-05 ± 8.1e-07 m2/s; (303.15 K) 1.76e-05 ± 6.1e-07 m2/s; (313.15 K) 1.36e-05 ± 4.6e-07 m2/s; (323.15 K) 1.07e-05 ± 3.7e-07 m2/s; (333.15 K) 8.68e-06 ± 3e-07 m2/s; (343.15 K) 7.18e-06 ± 2.5e-07 m2/s.

In the case of `CC/C=C\C/C=C\C/C=C\CCCCCCCC(=O)OC` [methyl (Z,Z,Z)-9,12,15-octadecatrienoate], the viscosity runs as follows: (293.15 K) 4.022 ± 0.14 mPa·s; (303.15 K) 3.301 ± 0.11 mPa·s; (313.15 K) 2.79 ± 0.096 mPa·s; (323.15 K) 2.299 ± 0.079 mPa·s; (333.15 K) 1.862 ± 0.064 mPa·s; (343.15 K) 1.596 ± 0.055 mPa·s.

As for `CCCCC/C=C\C/C=C\CCCCCCCC(=O)OC` [methyl (Z,Z)-9,12-octadecadienate], the viscosity reads like this: (293.15 K) 4.798 ± 0.17 mPa·s; (303.15 K) 3.822 ± 0.13 mPa·s; (313.15 K) 3.166 ± 0.11 mPa·s; (323.15 K) 2.55 ± 0.088 mPa·s; (333.15 K) 2.078 ± 0.071 mPa·s; (343.15 K) 1.755 ± 0.06 mPa·s.

As usually defined, the viscosity is the resistance of a fluid to flow.
